# Measurements published in ChEMBL document CHEMBL1151305, “The biotransformation of some clovanes by botrytis cinerea” (J Nat Prod, 1998).
# Active and inactive are the calls of the source. The rule behind the calls is not given here.
# System: Botrytis cinerea
# Assay: Antifungal activity against Botrytis cinerea assessed as inhibition of radical growth by poisoned-food technique
# Assay type: functional, organism-based
smiles,measurement,value
CO[C@H]1CC(C)(C)[C@@H]2CC[C@@]3(C)C[C@]12CC[C@H]3O,Activity,Active
